Series [1] has as its target CDK2:CCNE1 (Homo sapiens (Human), UniProt P24941). Put plainly: NanoBRET assay in MCF-7 cells, CDK2. Format: cell-based. Particulars: transfected MCF-7 cells, 2 hours, n = 1 or average. The method in brief: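 In live MCF-7 cells, compound added followed by NanoBRET TE Tracer K-9 (stock 200 μM) for CDK2, 2 h at 37° C, 5% CO2.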
Background: BRET reads energy transfer from a luciferase to a nearby fluorophore.

In series [2] the target is CDK1:CCNB1 (Homo sapiens (Human), UniProt P06493). Put plainly: NanoBRET assay in MCF-7 cells, CDK1. Format: cell-based. As to conditions: NanoBRET, transfected MCF-7 cells, 2 hours; n = 1 or average; read-out: CDK1 IC50. In short, it runs like this:
(§1)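 Transiently transfected MCF-7 cells expressing CDK1:CCNB1 or CDK4:CCND1 were treated with compound plus tracer (CDK1: Tracer K-9, 400 μM stock; CDK4: Tracer K-7, 100 μM stock) for 2 h at 37 °C.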

Series [3] addresses CDK4:CCND1 (Homo sapiens (Human), UniProt P11802). Put plainly: NanoBRET assay in MCF-7 cells, CDK4. Format: cell-based. As to conditions: NanoBRET, transfected MCF-7 cells, 2 hours; n = 1 or average; read-out: CDK4 IC50. In short, it runs like this:
as §1

Series [4] concerns NPM phosphorylation (Thr199, CDK2-cyclin E complex). Put plainly: NPM phosphorylation imaging assay in MCF-7 cells. Format: cell-based. As to conditions: Homo sapiens, 4N DNA cells. The method in brief: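 MCF-7 cells were fixed, permeabilised and immunostained, then imaged for phospho-NPM (Thr199), a CDK2-cyclin E site. Analysis was gated on 4N-DNA cells by Hoechst staining. Signals were normalised to controls and fitted for IC50.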

Series [5] concerns POLR2A Ser2 phosphorylation (CDK9). Put plainly: POLR2A Ser2 phosphorylation imaging assay in MCF-7 cells. The class given is cell-based. As to conditions: Homo sapiens, MCF7, 2 h, MCF-7 cells, 2 hours; read-out: POLR2A Ser2 phosphorylation IC50. In short, it runs like this: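 MCF-7 cells were fixed, permeabilised and immunostained for POLR2A phospho-Ser2, then imaged by high-content microscopy. Levels were normalised to controls and IC50 values derived.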

Series [6] relates to MCF-7 cells. Put plainly: Cellular proliferation EdU assay, MCF-7. Format: cell-based. As to conditions: Homo sapiens, MCF7, 48 h, EdU assay, two days; read-out: MCF-7 IC50. In short, it runs like this:
(§2)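 MCF-7 (800 cells/well) and OVCAR3 (1200 cells/well) in RPMI with 10% FBS exposed to compounds for two days at 37 °C.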

Series [7] deals with OVCAR3 cells. Put plainly: Cellular proliferation EdU assay, OVCAR3. Particulars: Homo sapiens, OVCAR-3, 48 h, EdU assay, two days; read-out: OVCAR3 IC50. Format: cell-based, human. In short, it runs like this: as §2
A short description of series [8]: CLint assessment in human liver microsomes (HLM). The class given is in vitro ADME. Particulars: 1 μM. The method, then:
After a preincubation with NADPH for 8 minutes, reactions were initiated through the addition of the test compound (final volume 250 μl) and incubated at 37° C. in a water bath for 30 minutes. […] Samples were shaken at 800 rpm for 2 minutes and centrifuged at 4000 rpm for 20 minutes at 4° C. to pellet precipitated protein. The supernatant fraction was diluted 1:5 with deionized water, shaken at 1000 rpm for 2 minutes, and further diluted 1:1 with deionized water. Samples were analyzed by LC-MS/MS. The t1/2 and the CLint of the compounds incubated in the LM, HLM, and HμREL assays as described above were calculated according to the following equations: […] where V (μl/×10^6 cells or mg protein) is the incubation volume (μl) divided by the number of cells (×10^6) or microsomal protein content (mg) in the incubation.
(In general: Liver microsomes are vesicles of endoplasmic reticulum, rich in cytochrome P450 enzymes.)

A short description of series [9]: Aqueous thermodynamic solubility, shake-flask. Format: physicochemical. As to conditions: aqueous phosphate buffer, 25 °C, pH 7.4, aqueous buffer, thermodynamic from solid, phosphate buffer 0.1 M, pH 7.4, 24 hours. In short, it runs like this:
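Dried compound (after DMSO evaporation) was equilibrated in 0.1 M phosphate buffer pH 7.4 with stirring for 24 h at 25° C. Undissolved material was removed by double centrifugation, and the supernatant was diluted in water and quantified by UPLC/MS/MS.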

One may read the IC50 as the concentration that inhibits the measured activity by half. Broadly, the solubility is how much of the substance goes into solution per volume. High values mean much dissolved substance, low ones little dissolved substance.

The structures appear in SMILES notation. In brackets after ≈: the same amount, converted by molar mass.

CDK1:CCNB1, sequence (P06493 whole entry): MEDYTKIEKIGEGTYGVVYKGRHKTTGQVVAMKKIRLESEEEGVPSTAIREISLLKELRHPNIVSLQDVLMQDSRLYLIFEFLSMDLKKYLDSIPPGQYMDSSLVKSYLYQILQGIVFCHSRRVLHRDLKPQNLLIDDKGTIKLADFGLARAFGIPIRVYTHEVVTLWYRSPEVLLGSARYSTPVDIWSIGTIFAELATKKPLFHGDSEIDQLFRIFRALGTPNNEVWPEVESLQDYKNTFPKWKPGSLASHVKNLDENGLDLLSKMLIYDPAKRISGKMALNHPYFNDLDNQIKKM
CDK1:CCNB1, sequence (P14635 whole entry partner): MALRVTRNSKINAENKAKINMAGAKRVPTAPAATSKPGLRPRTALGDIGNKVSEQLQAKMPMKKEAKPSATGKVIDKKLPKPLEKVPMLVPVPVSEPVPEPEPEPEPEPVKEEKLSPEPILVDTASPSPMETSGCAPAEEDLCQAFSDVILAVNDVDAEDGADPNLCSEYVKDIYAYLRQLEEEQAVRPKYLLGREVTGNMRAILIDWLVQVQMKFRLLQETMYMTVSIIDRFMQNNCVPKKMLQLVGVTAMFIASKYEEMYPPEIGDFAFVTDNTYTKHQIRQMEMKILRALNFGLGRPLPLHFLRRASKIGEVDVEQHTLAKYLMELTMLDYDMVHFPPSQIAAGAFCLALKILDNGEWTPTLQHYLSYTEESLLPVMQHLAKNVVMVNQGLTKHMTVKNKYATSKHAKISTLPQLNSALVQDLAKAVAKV
CDK4:CCND1, sequence (P11802 whole entry): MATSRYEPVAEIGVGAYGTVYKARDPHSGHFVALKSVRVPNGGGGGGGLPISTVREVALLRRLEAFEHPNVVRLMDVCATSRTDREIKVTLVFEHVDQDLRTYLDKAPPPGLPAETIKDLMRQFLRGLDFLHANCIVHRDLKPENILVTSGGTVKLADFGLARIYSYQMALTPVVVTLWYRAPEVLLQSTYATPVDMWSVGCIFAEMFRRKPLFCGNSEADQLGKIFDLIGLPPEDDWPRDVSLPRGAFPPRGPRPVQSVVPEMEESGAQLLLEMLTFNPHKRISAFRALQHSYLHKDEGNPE
CDK4:CCND1, sequence (P24385 whole entry partner): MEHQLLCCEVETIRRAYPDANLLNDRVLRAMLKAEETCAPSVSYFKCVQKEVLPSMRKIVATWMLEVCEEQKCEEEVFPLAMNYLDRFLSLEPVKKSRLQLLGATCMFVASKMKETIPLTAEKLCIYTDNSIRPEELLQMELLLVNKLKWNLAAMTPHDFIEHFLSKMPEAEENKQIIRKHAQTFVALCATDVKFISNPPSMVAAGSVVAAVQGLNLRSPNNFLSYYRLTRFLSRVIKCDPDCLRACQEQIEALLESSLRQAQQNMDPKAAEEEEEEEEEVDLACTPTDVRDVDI

Turning to `CC(C)[C@H](CO)Nc1nc(N[C@H]2C[C@@H](C)N(S(C)(=O)=O)C2)c2ncn(C(C)C)c2n1` [Example 34, (R)-2-((9-isopropyl-6-(((3S,5R)-5-methyl-1-(methylsulfonyl)-pyrrolidin-3-yl)amino)-9H-purin-2-yl)amino)-3-methylbutan-1-ol], the IC50 was 12 nM in series [1]; 844 nM in series [2]; 11800 nM in [3]; 381 nM in series [4] (MCF7, 2 hours); above 30000 nM in [5]; 1150 nM in series [6]. The IC50 in series [7] came out at 487 nM. Besides, in series [8], the “HLM CLint” value was above 300 µL/min/mg. The same molecule came in with a solubility at 24 h in series [9] of 59.9 µM (≈ 26.3 µg/mL).
In the case of `CCNS(=O)(=O)N1CC[C@H](Nc2cc(N[C@@H](CC)[C@@H](C)O)nc3c2ncn3CC)C1` [Example 60, (S)—N-ethyl-3-((3-ethyl-5-(((2R,3S)-2-hydroxypentan-3-yl)amino)-3H-imidazo[4,5-b]pyridin-7-yl)amino)pyrrolidine-1-sulfonamide], the IC50 in [1] came out at 14 nM; in series [2], 426 nM; in [3], 2500 nM; in series [4] (MCF7, 2 h), 64 nM; in series [5], 6100 nM; in series [6] it was 637 nM. Further, in [7], the IC50 is 89 nM. Moreover, the “HLM CLint” value in [8] was found to be 65.6 µL/min/mg. In series [9], this molecule had a solubility at 24 h of 51.3 µM (≈ 22.6 µg/mL).
With `CCn1cnc2c(N[C@H]3CCN(S(=O)(=O)CF)C3)nc(N[C@@H](CO)C(C)C)nc21` [Example 43, (R)-2-((9-ethyl-6-(((S)-1-(fluoromethylsulfonyl)pyrrolidin-3-yl)-amino)-9H-purin-2-yl)amino)-3-methylbutan-1-ol], the IC50 is 11 nM in series [1]; 557 nM in [2]; 5200 nM in [3]; 150 nM in series [4] (MCF7, 2 h); above 30000 nM in series [5]; 328 nM in series [6]. In [7], the concentration for half-maximal inhibition (IC50) worked out at 291 nM. For the same molecule, the “HLM CLint” value in series [8] was determined as 148 µL/min/mg. In series [9], this molecule displayed a solubility at 24 h of 97.2 µM (≈ 41.7 µg/mL).
Regarding `CC(C)[C@H](CO)Nc1nc(N[C@@H]2CN(S(C)(=O)=O)C[C@H]2C)c2ncn(C(C)C)c2n1` [Example 36, (R)-2-((9-isopropyl-6-(((3S,4R)-4-methyl-1-(methylsulfonyl)-pyrrolidin-3-yl)amino)-9H-purin-2-yl)amino)-3-methylbutan-1-ol], the IC50 in series [1] was 50 nM; in [2] it was 2020 nM; in [3] it was above 29700 nM; in [4] (MCF7, 2 hours) it was 1230 nM; in series [5], above 30000 nM; in series [6] it was 3010 nM. Moreover, the IC50 in [7] is 1250 nM. The “HLM CLint” value in series [8] was above 300 µL/min/mg. Also, the solubility at 24 h in [9] came to 11.1 µM (≈ 4.88 µg/mL).
On to `CC(C)n1cnc2c(N[C@H]3CCN(S(C)(=O)=O)C3)nc(NC(CO)C3CCCO3)nc21` (stereo partly drawn) [Example 16, 2-((9-isopropyl-6-(((S)-1-(methylsulfonyl)pyrrolidin-3-yl)amino)-9H-purin-2-yl)amino)-2-(tetrahydrofuran-2-yl)ethan-1-ol], for which the IC50 in series [1] was 93 nM; in [2], 1600 nM; in [3], 17200 nM; in series [4] (MCF7, 2 h), 368 nM; in series [5], above 30000 nM; in series [6], 2520 nM. Besides, in series [7], the IC50 worked out at 964 nM. In addition, the “HLM CLint” value in [8] was determined as 96.5 µL/min/mg. Besides, the solubility at 24 h in [9] was above 1000 µM.
Consider `CCNS(=O)(=O)N1CC[C@H](Nc2nc(N[C@@H](C)C(C)(C)O)nc3c2ncn3CC)C1` (relative stereo) [Example 59, (S)—N-ethyl-3-((9-ethyl-2-(((R*)-3-hydroxy-3-methylbutan-2-yl)-amino)-9H-purin-6-yl)amino)pyrrolidine-1-sulfonamide], for which the half-inhibitory concentration (IC50) in series [1] is 37 nM; in [2], 1690 nM; in series [3] it was 11400 nM; in series [4] (MCF7, 2 h), 337 nM; in series [5], above 30000 nM; in series [6], 1780 nM. In series [7], the concentration for half-maximal inhibition (IC50) was 950 nM. The “HLM CLint” value in series [8] is 35.9 µL/min/mg. In addition, the solubility at 24 h in series [9] is above 1000 µM.
For `CC[C@H](Nc1nc(N[C@H]2CCN(S(=O)(=O)NC)C2)c2ncn(CC)c2n1)C(C)(C)O` [Example 46, (S)-3-((9-ethyl-2-(((S)-2-hydroxy-2-methylpentan-3-yl)amino)-9H-purin-6-yl)amino)-N-methylpyrrolidine-1-sulfonamide], the IC50 is 192 nM in series [1]; 8370 nM in [2]; 23700 nM in series [3]; 1170 nM in series [4] (MCF7, 2 hours); above 30000 nM in series [5]; 3170 nM in series [6]. For the same molecule, the concentration for half-maximal inhibition (IC50) in series [7] was 1370 nM. For the same molecule, in series [8], the “HLM CLint” value was found to be 76.6 µL/min/mg. Moreover, in series [9], the solubility at 24 h was above 1000 µM.
Consider `CCn1cnc2c(N[C@H]3CCN(S(=O)(=O)C4CC4)C3)nc(N[C@@H](CO)C(C)C)nc21` [Example 41, (R)-2-((6-(((S)-1-(cyclopropylsulfonyl)pyrrolidin-3-yl)amino)-9-ethyl-9H-purin-2-yl)amino)-3-methylbutan-1-ol], for which the IC50 in series [1] was 19 nM; in series [2], 663 nM; in series [3] it was 7700 nM; in series [4] (MCF7, 2 h), 182 nM; in [5] it was above 30000 nM; in [6], 746 nM. Also, in series [7], the IC50 turned out to be 327 nM. Besides, the “HLM CLint” value in series [8] came out at 177 µL/min/mg. The molecule also showed a solubility at 24 h in [9] of 39.2 µM (≈ 17.2 µg/mL).
On to `CCn1cnc2c(N[C@H]3CCN(S(=O)(=O)NC)C3)nc(N[C@@H](CC(F)(F)F)[C@@H](C)O)nc21` (relative stereo) [Example 21, (S)-3-((9-ethyl-2-(((3S*,4R*)-1,1,1-trifluoro-4-hydroxypentan-3-yl)-amino)-9H-purin-6-yl)amino)-N-methylpyrrolidine-1-sulfonamide], for which the IC50 is 49 nM in series [1]; 3830 nM in [2]; above 29700 nM in series [3]; 326 nM in series [4] (MCF7, 2 hours); above 30000 nM in series [5]; 1450 nM in series [6]. Further, in series [7], the IC50 is 578 nM. Also, the “HLM CLint” value in series [8] was 34.1 µL/min/mg. Besides, the solubility at 24 h in [9] came to 606 µM (≈ 291 µg/mL).
As to `CC[C@H](Nc1nc(N[C@H]2CCN(S(N)(=O)=O)C2)c2ncn(CC)c2n1)C(C)=O` [Example 10, (S)-3-((9-ethyl-2-(((S)-2-oxopentan-3-yl)amino)-9H-purin-6-yl)amino)pyrrolidine-1-sulfonamide], the IC50 was 100 nM in series [1]; 4620 nM in series [2]; above 23100 nM in series [3]; 481 nM in series [4] (MCF7, 2 h); above 30000 nM in series [5]; 2940 nM in series [6]. Besides, the IC50 in series [7] was found to be 1300 nM. For the same molecule, the “HLM CLint” value in series [8] stood at 17.6 µL/min/mg. For the same molecule, in series [9], the solubility at 24 h was above 904 µM.
On to `CC(C)[C@H](CO)Nc1nc(N[C@H]2CCN(S(C)(=O)=O)C2)c2ncn(C3CC3)c2n1` [Example 29, (R)-2-((9-cyclopropyl-6-(((S)-1-(methylsulfonyl)pyrrolidin-3-yl)amino)-9H-purin-2-yl)amino)-3-methylbutan-1-ol], for which the IC50 in [1] was 90 nM; in series [2], 3700 nM; in series [3], above 29700 nM; in [4] (MCF7, 2 h) it was 2190 nM; in [5], above 30000 nM; in [6], 2420 nM. For the same molecule, the IC50 in series [7] amounted to 1380 nM. Moreover, in series [8], the “HLM CLint” value was 90.5 µL/min/mg. Further, the solubility at 24 h in series [9] was found to be 71.2 µM (≈ 30.2 µg/mL).

These data come from patent US20250197425A1, “2,6,9-TRISUBSTITUTED PURINES” (ASTRAZENECA AB, priority 2022, published 2025).
